Where only a bound is given, the exact number is not on record here.

The target in one test is recombinant GST-LRRK2 (wild-type) (Homo sapiens (Human), UniProt Q5S007). Kind of test: LRRK2 TR-FRET peptide assay (in vitro kinase activity), wild-type. It is filed as biochemical.
Chain of recombinant GST-LRRK2 (wild-type) (Q5S007 whole entry): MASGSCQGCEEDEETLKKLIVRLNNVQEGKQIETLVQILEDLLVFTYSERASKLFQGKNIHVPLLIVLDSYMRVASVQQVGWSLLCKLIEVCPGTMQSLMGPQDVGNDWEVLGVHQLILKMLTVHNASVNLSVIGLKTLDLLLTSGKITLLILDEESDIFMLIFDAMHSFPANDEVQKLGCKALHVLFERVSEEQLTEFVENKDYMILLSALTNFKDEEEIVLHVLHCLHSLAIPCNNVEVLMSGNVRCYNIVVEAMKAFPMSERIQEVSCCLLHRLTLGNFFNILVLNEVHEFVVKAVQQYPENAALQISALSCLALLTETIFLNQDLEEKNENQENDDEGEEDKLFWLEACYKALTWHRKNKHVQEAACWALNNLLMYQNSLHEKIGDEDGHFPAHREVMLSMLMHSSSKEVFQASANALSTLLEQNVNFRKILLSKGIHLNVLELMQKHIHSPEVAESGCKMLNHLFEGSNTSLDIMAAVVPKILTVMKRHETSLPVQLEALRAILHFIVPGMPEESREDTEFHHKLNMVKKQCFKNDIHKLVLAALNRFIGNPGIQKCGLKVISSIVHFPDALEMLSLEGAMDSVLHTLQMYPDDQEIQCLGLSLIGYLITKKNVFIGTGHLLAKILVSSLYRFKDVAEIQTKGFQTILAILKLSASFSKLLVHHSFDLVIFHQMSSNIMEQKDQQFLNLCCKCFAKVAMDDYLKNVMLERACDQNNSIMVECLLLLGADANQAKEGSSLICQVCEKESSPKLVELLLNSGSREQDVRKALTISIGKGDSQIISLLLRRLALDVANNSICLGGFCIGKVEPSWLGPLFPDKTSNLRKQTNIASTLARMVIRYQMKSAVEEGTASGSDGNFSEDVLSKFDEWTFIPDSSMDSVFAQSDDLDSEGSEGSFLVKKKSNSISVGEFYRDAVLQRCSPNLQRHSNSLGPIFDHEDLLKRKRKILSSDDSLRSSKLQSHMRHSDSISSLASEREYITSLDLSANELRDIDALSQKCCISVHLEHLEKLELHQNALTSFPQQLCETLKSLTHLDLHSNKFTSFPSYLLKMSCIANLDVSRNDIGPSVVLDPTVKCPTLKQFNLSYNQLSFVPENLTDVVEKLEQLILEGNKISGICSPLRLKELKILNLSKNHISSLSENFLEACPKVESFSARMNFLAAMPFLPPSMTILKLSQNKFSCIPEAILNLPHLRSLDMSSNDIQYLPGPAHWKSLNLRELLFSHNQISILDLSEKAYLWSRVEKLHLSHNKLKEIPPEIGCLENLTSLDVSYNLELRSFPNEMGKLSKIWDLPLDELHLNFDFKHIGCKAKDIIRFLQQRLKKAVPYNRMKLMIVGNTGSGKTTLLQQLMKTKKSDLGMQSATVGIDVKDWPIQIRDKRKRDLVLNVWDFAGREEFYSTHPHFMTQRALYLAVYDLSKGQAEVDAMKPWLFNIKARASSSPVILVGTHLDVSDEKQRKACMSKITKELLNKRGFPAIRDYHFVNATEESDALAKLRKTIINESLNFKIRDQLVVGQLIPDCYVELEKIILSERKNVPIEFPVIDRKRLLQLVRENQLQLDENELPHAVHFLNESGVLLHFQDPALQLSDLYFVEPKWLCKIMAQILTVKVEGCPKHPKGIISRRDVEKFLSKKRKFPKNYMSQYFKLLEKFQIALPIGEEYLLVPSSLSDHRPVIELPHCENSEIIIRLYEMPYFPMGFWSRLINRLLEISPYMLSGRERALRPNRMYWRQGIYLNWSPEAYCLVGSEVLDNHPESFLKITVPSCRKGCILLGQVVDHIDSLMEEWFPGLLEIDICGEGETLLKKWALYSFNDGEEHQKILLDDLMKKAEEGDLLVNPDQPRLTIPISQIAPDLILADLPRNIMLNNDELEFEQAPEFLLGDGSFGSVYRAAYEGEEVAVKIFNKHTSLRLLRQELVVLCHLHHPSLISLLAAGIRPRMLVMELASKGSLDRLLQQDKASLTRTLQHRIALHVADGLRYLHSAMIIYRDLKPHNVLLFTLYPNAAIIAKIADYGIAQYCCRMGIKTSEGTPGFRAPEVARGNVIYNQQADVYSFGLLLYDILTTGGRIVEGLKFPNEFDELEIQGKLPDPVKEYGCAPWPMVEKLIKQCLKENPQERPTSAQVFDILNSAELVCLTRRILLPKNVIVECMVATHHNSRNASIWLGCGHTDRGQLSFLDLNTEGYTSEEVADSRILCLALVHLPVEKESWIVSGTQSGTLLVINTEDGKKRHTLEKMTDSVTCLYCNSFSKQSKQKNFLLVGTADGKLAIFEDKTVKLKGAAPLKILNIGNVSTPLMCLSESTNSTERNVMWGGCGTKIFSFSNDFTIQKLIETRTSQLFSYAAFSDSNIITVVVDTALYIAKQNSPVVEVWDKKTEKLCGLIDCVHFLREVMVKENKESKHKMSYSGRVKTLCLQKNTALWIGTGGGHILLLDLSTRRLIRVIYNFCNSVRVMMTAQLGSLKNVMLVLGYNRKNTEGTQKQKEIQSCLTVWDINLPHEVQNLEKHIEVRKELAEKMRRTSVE
Settings: not given
As for the experimental part: Compounds as described herein (compounds of Formula I, e.g., compounds of the above Examples) are tested for their in vitro kinase activities using various LRRK2 (including LRRK2 G2019S mutant) assays. […] Serially diluted compounds (1% DMSO as co-solvent) were pre-incubated with recombinant GST-LRRK2 (wild-type, or G2019S mutant, Invitrogen) for 15 minutes at room temperature in 384-well Corning black plates. […] The inhibition of each well was calculated using the control and background readings for that plate. IC50 values were determined from dose-response curves using eight concentrations from the serial dilution of the test compounds.
In general terms: In TR-FRET formats the signal depends on donor and acceptor labels being close together.
With `CC(C)Nc1c(C(N)=O)nnc2cc(N3CCN(C)CC3)ccc12` [Compound 4-188, 4-(isopropylamino)-7-(4-methylpiperazin-1-yl)cinnoline-3-carboxamide], the IC50 (usually the concentration at which inhibition is half-maximal) was found to be 53 nM.

The same test, now with this note: 100 μM ATP, 100 nM biotin-LRRKtide substrate, 10 nM kinase, 60 minutes at room temperature.
Turning to `CC(C)Nc1c(C(N)=O)nnc2ccc(-c3ccncc3)cc12` [Compound 2-126, 4-(isopropylamino)-6-(pyridin-4-yl)cinnoline-3-carboxamide], the IC50 stood at 30 nM.

Regarding `CS(=O)(=O)c1ccc(-c2ccc3c(NC4CCOC4)c(C(N)=O)nnc3c2)cc1` (stereo not drawn) [Compound 2-23, 7-(4-(methylsulfonyl)phenyl)-4-(tetrahydrofuran-3-ylamino)cinnoline-3-carboxamide], the concentration for half-maximal inhibition (IC50) is 17 nM.

As for `C[C@@H](Nc1c(C(N)=O)nnc2cc(-c3ccc(S(C)(=O)=O)cc3)ccc12)C1CCOCC1` [Compound 2-90, (R)-7-(4-(methylsulfonyl)phenyl)-4-(1-(tetrahydro-2H-pyran-4-yl)ethylamino)cinnoline-3-carboxamide], the IC50 was 63 nM.

As for `C[C@@H](Nc1c(C(N)=O)nnc2cc(-c3cccc(C(=O)N(C)C)c3)ccc12)C1CC1` [Compound 2-102, (R)-4-(1-cyclopropylethylamino)-7-(3-(dimethylcarbamoyl)phenyl)cinnoline-3-carboxamide], the IC50 is under 6 nM.

In the case of `C[C@@H](Nc1c(C(N)=O)nnc2cc(-c3cccc4c3NC(=O)C4)ccc12)C1CC1` [Compound 2-121, (R)-4-(1-cyclopropylethylamino)-7-(2-oxoindolin-7-yl)cinnoline-3-carboxamide], the IC50 was determined as 2 nM.

As for `CS(=O)(=O)c1ccc(-c2ccc3c(N)c(C(N)=O)nnc3c2)cc1` [Compound 1-5, 4-amino-7-(4-(methylsulfonyl)phenyl)cinnoline-3-carboxamide], the IC50 was 140 nM.

In the case of `CC(C)Nc1c(C(N)=O)nnc2cc(-c3cccc(N4CCOCC4)c3)ccc12` [Compound 2-51, 4-(isopropylamino)-7-(3-morpholinophenyl)cinnoline-3-carboxamide], the IC50 was determined as 17 nM.

With `CC(C)Nc1c(C#N)nnc2ccc(-c3cn[nH]c3)cc12` [Compound 2-128, 4-(isopropylamino)-6-(1H-pyrazol-4-yl)cinnoline-3-carbonitrile], the IC50 amounted to 120 nM.

As for `CC(C)Nc1c(C(N)=O)nnc2cc(-n3cccn3)ccc12` [Compound 4-80, 4-(isopropylamino)-7-(1H-pyrazol-1-yl)cinnoline-3-carboxamide], the IC50 is 31 nM.

For the compound `CCNc1c(C(N)=O)nnc2cc(-c3ccc(S(C)(=O)=O)cc3)ccc12` [Compound 2-93, 4-(ethylamino)-7-(4-(methylsulfonyl)phenyl)cinnoline-3-carboxamide], the 50% inhibitory concentration (IC50) amounted to 46 nM.

In the case of `CC(C)Nc1c(C(N)=O)nnc2cc(-c3ccc(N4CCOCC4)cc3)ccc12` [Compound 2-49, 4-(isopropylamino)-7-(4-morpholinophenyl)cinnoline-3-carboxamide], the IC50 came out at 9 nM.

Take `CC(C)Nc1c(-c2ncc[nH]2)nnc2cc(-c3ccc(S(C)(=O)=O)cc3)ccc12` [Compound 13-233, 3-(1H-imidazol-2-yl)-N-isopropyl-7-(4-(methylsulfonyl)phenyl)cinnolin-4-amine]: the IC50 is 51 nM.

Regarding `CC(C)Nc1c(C(N)=O)nnc2cc(-c3cccnc3)ccc12` [Compound 2-57, 4-(isopropylamino)-7-(pyridin-3-yl)cinnoline-3-carboxamide], the IC50 was 33 nM.

On to `CC(C)Nc1c(C(N)=O)nnc2ccc(-c3cnn(C)c3)cc12` [Compound 2-129, 4-(isopropylamino)-6-(1-methyl-1H-pyrazol-4-yl)cinnoline-3-carboxamide], for which the IC50 was found to be 380 nM.

Take `C[C@@H](Nc1c(C(N)=O)nnc2cc(-c3cnn(C)c3)ccc12)C1CC1` [Compound 2-101, (R)-4-(1-cyclopropylethylamino)-7-(1-methyl-1H-pyrazol-4-yl)cinnoline-3-carboxamide]: the IC50 stood at 1 nM.

In the case of `NC(=O)c1nnc2cc(-c3cccc(N4CCOCC4)c3)ccc2c1N` [Compound 1-6, 4-amino-7-(3-morpholinophenyl)cinnoline-3-carboxamide], the concentration for half-maximal inhibition (IC50) was determined as 120 nM.

With `CC(C)Nc1c(Cl)nnc2cc(-c3ccc(S(C)(=O)=O)cc3)ccc12` [Compound 3-84, 3-chloro-N-isopropyl-7-(4-(methylsulfonyl)phenyl) cinnolin-4-amine], the IC50 was found to be 1600 nM.

Take `CC(C)Nc1c(C(N)=O)nnc2cc(Nc3ccccc3)ccc12` [Compound 4-78, 4-(isopropylamino)-7-(phenylamino)cinnoline-3-carboxamide]: the IC50 was determined as 72 nM.

For the compound `C[C@@H](Nc1c(C(N)=O)nnc2cc(-c3ccn(C)c(=O)c3)ccc12)C1CC1` [Compound 2-122, (R)-4-(1-cyclopropylethylamino)-7-(1-methyl-2-oxo-1,2-dihydropyridin-4-yl)cinnoline-3-carboxamide], the half-maximal inhibitory concentration (IC50) stood at 8 nM.

`COc1cc(C(=O)N(C)C)ccc1-c1ccc2c(N[C@H](C)C3CC3)c(C(N)=O)nnc2c1` [Compound 2-118, (R)-4-(1-cyclopropylethylamino)-7-(4-(dimethylcarbamoyl)-2-methoxyphenyl)cinnoline-3-carboxamide]: the IC50 worked out at 10 nM.

On to `CS(=O)(=O)c1ccc(-c2ccc3c(NC4CCOCC4)c(C(N)=O)nnc3c2)cc1` [Compound 2-25, 7-(4-(methylsulfonyl)phenyl)-4-(tetrahydro-2H-pyran-4-ylamino)cinnoline-3-carboxamide], for which the IC50 was 23 nM.

For `CC(C)Nc1c(I)nnc2cc(-c3ccc(S(C)(=O)=O)cc3)ccc12` [Compound 3-68, 3-iodo-N-isopropyl-7-(4-(methylsulfonyl)phenyl)cinnolin-4-amine], the 50% inhibitory concentration (IC50) worked out at 950 nM.

Turning to `CC(C)Nc1c(C(N)=O)nnc2ccc(-c3cncs3)cc12` [Compound 2-131, 4-(isopropylamino)-6-(thiazol-5-yl)cinnoline-3-carboxamide], the IC50 was determined as 110 nM.

Turning to `CC(C)Nc1c(C(N)=O)nnc2cc(-c3cncnc3)ccc12` [Compound 2-33, 4-(isopropylamino)-7-(pyrimidin-5-yl)cinnoline-3-carboxamide], the IC50 stood at 210 nM.

In the case of `CCC(CC)Nc1c(C(N)=O)nnc2cc(-c3ccncc3)ccc12` [Compound 2-134, 4-(pentan-3-ylamino)-7-(pyridin-4-yl)cinnoline-3-carboxamide], the IC50 amounted to 26 nM.

As to `C[C@@H](Nc1c(C(N)=O)nnc2cc(-c3ccc(N4CCOCC4=O)cc3)ccc12)C1CC1` [Compound 2-116, (R)-4-(1-cyclopropylethylamino)-7-(4-(3-oxomorpholino)phenyl)cinnoline-3-carboxamide], the IC50 turned out to be 10 nM.

As for `CC(C)Nc1c(C(N)=O)nnc2cc(-c3cnn(C)c3)ccc12` [Compound 2-35, 4-(isopropylamino)-7-(1-methyl-1H-pyrazol-4-yl)cinnoline-3-carboxamide], the IC50 was 9 nM.

Consider `C[C@@H](Nc1c(C(N)=O)nnc2cc(-c3ccccc3)ccc12)C1CC1` [Compound 2-110, (R)-4-(1-cyclopropylethylamino)-7-phenylcinnoline-3-carboxamide], for which the 50% inhibitory concentration (IC50) is 10 nM.

Consider `C[C@@H](Nc1c(C(N)=O)nnc2cc(-c3ccc(=O)n(C)c3)ccc12)C1CC1` [Compound 2-112, (R)-4-(1-cyclopropylethylamino)-7-(1-methyl-6-oxo-1,6-dihydropyridin-3-yl)cinnoline-3-carboxamide], for which the IC50 was under 6 nM.

For the compound `CCC(C)Sc1c(C(N)=O)nnc2cc(-c3ccc(S(C)(=O)=O)cc3)ccc12` (stereo not drawn) [Compound 2-243, 4-(sec-butylthio)-7-(4-(methylsulfonyl)phenyl)cinnoline-3-carboxamide], the IC50 was found to be 12000 nM.

On to `CC(C)Nc1c(C(N)=O)nnc2cc(-c3ccccc3F)ccc12` [Compound 2-47, 7-(2-fluorophenyl)-4-(isopropylamino)cinnoline-3-carboxamide], for which the IC50 was determined as 210 nM.

`C[C@@H](Nc1c(C(N)=O)nnc2cc(-c3cccc(S(C)(=O)=O)c3)ccc12)C1CC1` [Compound 2-111, (R)-4-(1-cyclopropylethylamino)-7-(3-(methylsulfonyl)phenyl)cinnoline-3-carboxamide]: the IC50 amounted to 1 nM.

For `C[C@@H](Nc1c(C(N)=O)nnc2cc(-c3ccc4c(c3)CC(=O)N4)ccc12)C1CC1` [Compound 2-106, (R)-4-(1-cyclopropylethylamino)-7-(2-oxoindolin-5-yl)cinnoline-3-carboxamide], the IC50 worked out at 11 nM.

Turning to `CNC(=O)c1nnc2cc(-c3ccc(S(C)(=O)=O)cc3)ccc2c1N[C@H](C)C1CC1` [Compound 12-231, (R)-4-(1-cyclopropylethylamino)-N-methyl-7-(4-(methylsulfonyl)phenyl)cinnoline-3-carboxamide], the IC50 amounted to 170 nM.

Regarding `COc1cc(N2CCOCC2=O)ccc1-c1ccc(OC)c(-c2ccc3c(N[C@H](C)C4CC4)c(C(N)=O)nnc3c2)c1` [Compound 9-210, (R)-4-(1-cyclopropylethylamino)-7-(2′,4-dimethoxy-4′-(3-oxomorpholino)biphenyl-3-yl)cinnoline-3-carboxamide], the IC50 stood at 490 nM.

Regarding `CS(=O)(=O)c1ccc(-c2ccc3c(NC4CC4)c(C(N)=O)nnc3c2)cc1` [Compound 2-29, 4-(cyclopropylamino)-7-(4-(methylsulfonyl)phenyl)cinnoline-3-carboxamide], the IC50 was found to be 47 nM.

Turning to `CC(C)Nc1c(C#N)nnc2cc(-c3ccc(S(C)(=O)=O)cc3)ccc12` [Compound 2-18, 4-(isopropylamino)-7-(4-(methylsulfonyl)phenyl)cinnoline-3-carbonitrile], the IC50 was 620 nM.

With `COc1ccccc1-c1ccc2c(NC(C)C)c(C(N)=O)nnc2c1` [Compound 2-96, 4-(isopropylamino)-7-(2-methoxyphenyl)cinnoline-3-carboxamide], the half-inhibitory concentration (IC50) was 350 nM.
